Source: patent publication US6737383B1, “Herbicidal oxadiazolidines” (priority 1999, dated 2004)

Key:
soybean = assay: Test B pre/postemergence soybean; type: in vivo, Glycine max
Method in brief: (§1)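 Herbicidal effect was estimated by eye on a ten-point control scale after plants spent twelve to sixteen days in a greenhouse following soil or foliar treatment. Foliar sprays targeted plants at one to four leaves; all doses were formulated in a non-phytotoxic solvent with surfactant.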

bedstraw = assay: Test B pre/postemergence bedstraw; type: in vivo, Galium aparine; conditions: Postemergence
Method in brief: as §1

sugar beet = assay: Test B pre/postemergence sugar beet; type: in vivo, Beta vulgaris
Method in brief: as §1

cocklebur = assay: Test B pre/postemergence cocklebur; type: in vivo, Xanthium strumarium
Method in brief: as §1

giant foxtail = assay: Test B pre/postemergence giant foxtail; type: in vivo, Setaria faberii
Method in brief: as §1

corn = assay: Test B pre/postemergence corn; type: in vivo, Zea mays
Method in brief: as §1

velvetleaf = assay: Test B pre/postemergence velvetleaf; type: in vivo, Abutilon theophrasti
Method in brief: as §1

surinam grass = assay: Test B pre/postemergence surinam grass; type: in vivo, Brachiaria decumbens
Method in brief: as §1

smallflower flatsedge = assay: Test B flood test smallflower flatsedge; type: in vivo, Cyperus difformis
Method in brief: (§2)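 Flood test on plants grown to the 2-leaf stage; treated plants kept in greenhouse twelve to sixteen days, then visually rated against controls on a 0 (no effect) to 10 (complete control) scale.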

purple nutsedge = assay: Test B pre/postemergence purple nutsedge; type: in vivo, Cyperus rotundus
Method in brief: as §1

wheat = assay: Test B pre/postemergence wheat; type: in vivo, Triticum aestivum
Method in brief: as §1

duck salad = assay: Test B flood test duck salad; type: in vivo, Heteranthera limosa
Method in brief: as §2

rape = assay: Test B pre/postemergence rape; type: in vivo, Brassica napus
Method in brief: as §1

wild oat = assay: Test B pre/postemergence wild oat; type: in vivo, Avena fatua
Method in brief: as §1

rice = assay: Test B flood test rice; type: in vivo, Oryza sativa
Method in brief: as §2

pigweed = assay: Test B pre/postemergence pigweed; type: in vivo, Amaranthus retroflexus
Method in brief: as §1

[1] = Postemergence, Rate 62 g/ha, scale 0 to 10, 0 is no effect, 10 is complete control
[2] = Postemergence, Rate 125 g/ha, scale of 0 to 10 where 0 is no effect and 10 is complete control
[3] = Postemergence, Rate 250 g/ha, scale of 0 to 10, 0 is no effect, 10 is complete control
[4] = Preemergence, Rate 62 g/ha, scale 0 to 10 (0 no effect, 10 complete control)
[5] = Preemergence, Rate 125 g/ha, scale of 0 to 10 where 0 is no effect and 10 is complete control
[6] = Preemergence, Rate 250 g/ha, scale 0 to 10 (0 no effect, 10 complete control)
[7] = Preemergence, Rate 500 g/ha, scale of 0 to 10 where 0 is no effect and 10 is complete control
[8] = Postemergence, Rate 500 g/ha, scale of 0 to 10 where 0 is no effect and 10 is complete control
[9] = Rate 62 g/ha, flood test species, Pre-emergence, visual evaluation after twelve to sixteen days
[10] = Rate 125 g/ha, under heading Pre-emergence, flood test species, visual evaluation after twelve to sixteen days
[11] = Rate 250 g/ha, Pre-emergence (flood test species), scale 0 to 10, 0 is no effect, 10 is complete control
[12] = Rate 500 g/ha, Pre-emergence section of Table B, 0 to 10 scale (0 no effect, 10 complete control)

## CC(=O)N(C)CCn1c(=O)on(C(=O)N(c2ccc(F)cc2)C(C)C)c1=O [Compound 625]
soybean; [1]
  Plant response rating, Soybean: 0
soybean; [2]
  Plant response rating, Soybean: 2
soybean; [3]
  Soybean plant response rating: 3
soybean; [4]
  Soybean plant response rating: 0
soybean; [5]
  Soybean plant response rating: 0
soybean; [6]
  Plant response rating, Soybean: 0
soybean; [7]
  Plant response rating, Soybean: 0
bedstraw; Rate 62 g/ha, scale 0 to 10, 0 is no effect, 10 is complete control
  Plant response rating, Bedstraw: 0
bedstraw; Rate 125 g/ha, scale of 0 to 10 where 0 is no effect and 10 is complete control
  Plant response rating, Bedstraw: 0
Sugar beet; [1]
  Plant response rating, Sugarbeets: 0
Sugar beet; [2]
  Plant response rating, Sugarbeets: 0
Sugar beet; [3]
  Sugarbeets plant response rating: 0
Sugar beet; [4]
  Sugarbeets plant response rating: 0
Sugar beet; [5]
  Sugarbeets plant response rating: 0
Sugar beet; [6]
  Plant response rating, Sugarbeets: 0
Sugar beet; [7]
  Plant response rating, Sugarbeets: 0
cocklebur; [1]
  Plant response rating, Cocklebur: 0
cocklebur; [2]
  Plant response rating, Cocklebur: 0
cocklebur; [3]
  Cocklebur plant response rating: 0
cocklebur; [8]
  Plant response rating, Cocklebur: 0
cocklebur; [4]
  Cocklebur plant response rating: 0
cocklebur; [5]
  Cocklebur plant response rating: 0
cocklebur; [6]
  Plant response rating, Cocklebur: 0
cocklebur; [7]
  Plant response rating, Cocklebur: 0
Giant foxtail; [1]
  Plant response rating, Giant foxtail: 0
Giant foxtail; [2]
  Plant response rating, Giant foxtail: 3
Giant foxtail; [3]
  Giant foxtail plant response rating: 5
Giant foxtail; [8]
  Plant response rating, Giant foxtail: 9
Giant foxtail; [4]
  Giant foxtail plant response rating: 6
Giant foxtail; [5]
  Giant foxtail plant response rating: 9
Giant foxtail; [6]
  Plant response rating, Giant foxtail: 10
Giant foxtail; [7]
  Plant response rating, Giant foxtail: 10
corn; [1]
  Plant response rating, Corn: 0
corn; [2]
  Plant response rating, Corn: 0
corn; [3]
  Corn plant response rating: 0
corn; [8]
  Plant response rating, Corn: 3
corn; [4]
  Corn plant response rating: 0
corn; [5]
  Corn plant response rating: 0
corn; [6]
  Plant response rating, Corn: 0
corn; [7]
  Plant response rating, Corn: 3
velvetleaf; [1]
  Plant response rating, Velvetleaf: 0
velvetleaf; [2]
  Plant response rating, Velvetleaf: 0
velvetleaf; [3]
  Velvetleaf plant response rating: 0
velvetleaf; [4]
  Velvetleaf plant response rating: 0
velvetleaf; [5]
  Velvetleaf plant response rating: 0
velvetleaf; [6]
  Plant response rating, Velvetleaf: 1
velvetleaf; [7]
  Plant response rating, Velvetleaf: 6
Surinam grass; [1]
  Plant response rating, B. signalgrass: 0
Surinam grass; [2]
  Plant response rating, B. signalgrass: 0
Surinam grass; [3]
  B. signalgrass plant response rating: 2
Surinam grass; [8]
  Plant response rating, B. signalgrass: 5
Surinam grass; [4]
  B. signalgrass plant response rating: 0
Surinam grass; [5]
  B. signalgrass plant response rating: 4
Surinam grass; [6]
  Plant response rating, B. signalgrass: 8
Surinam grass; [7]
  Plant response rating, B. signalgrass: 10
Smallflower flatsedge; [9]
  Plant response rating, S. Flatsedge (0 to 10 scale, 0 is no effect, 10 is complete control): 0
Smallflower flatsedge; [10]
  S. Flatsedge plant response rating (0 to 10 scale, 0 is no effect, 10 is complete control): 0
Smallflower flatsedge; [11]
  S. Flatsedge plant response rating: 0
Smallflower flatsedge; [12]
  S. Flatsedge plant response rating: 0
Purple nutsedge; [1]
  Plant response rating, Nutsedge: 0
Purple nutsedge; [2]
  Plant response rating, Nutsedge: 0
Purple nutsedge; [3]
  Nutsedge plant response rating: 0
Purple nutsedge; [4]
  Nutsedge plant response rating: 0
Purple nutsedge; [5]
  Nutsedge plant response rating: 0
Purple nutsedge; [6]
  Plant response rating, Nutsedge: 0
Purple nutsedge; [7]
  Plant response rating, Nutsedge: 0
wheat; [1]
  Plant response rating, Wheat: 0
wheat; [2]
  Plant response rating, Wheat: 0
wheat; [3]
  Wheat plant response rating: 0
wheat; [4]
  Wheat plant response rating: 0
wheat; [5]
  Wheat plant response rating: 0
wheat; [6]
  Plant response rating, Wheat: 0
wheat; [7]
  Plant response rating, Wheat: 3
Duck salad; [9]
  Plant response rating, Ducksalad (0 to 10 scale, 0 is no effect, 10 is complete control): 0
Duck salad; [10]
  Ducksalad plant response rating (0 to 10 scale, 0 is no effect, 10 is complete control): 0
Duck salad; [11]
  Ducksalad plant response rating: 0
Duck salad; [12]
  Ducksalad plant response rating: 0
rape; [1]
  Plant response rating, Rape: 0
rape; [2]
  Plant response rating, Rape: 0
rape; [3]
  Rape plant response rating: 0
rape; [8]
  Plant response rating, Rape: 0
rape; [4]
  Rape plant response rating: 0
rape; [5]
  Rape plant response rating: 0
rape; [7]
  Plant response rating, Rape: 4
Wild oat; [1]
  Plant response rating, Wild oats: 0
Wild oat; [2]
  Plant response rating, Wild oats: 0
Wild oat; [3]
  Wild oats plant response rating: 0
Wild oat; [4]
  Wild oats plant response rating: 0
Wild oat; [5]
  Wild oats plant response rating: 0
Wild oat; [6]
  Plant response rating, Wild oats: 3
Wild oat; [7]
  Plant response rating, Wild oats: 5
rice; [9]
  Plant response rating, Rice (0 to 10 scale, 0 is no effect, 10 is complete control): 0
rice; [10]
  Rice plant response rating (0 to 10 scale, 0 is no effect, 10 is complete control): 0
rice; [11]
  Rice plant response rating: 0
rice; [12]
  Rice plant response rating: 0
pigweed; [1]
  Plant response rating, Redroot pigweed: 0
pigweed; [2]
  Plant response rating, Redroot pigweed: 0
pigweed; [3]
  Redroot pigweed plant response rating: 0
pigweed; [4]
  Redroot pigweed plant response rating: 0
pigweed; [5]
  Redroot pigweed plant response rating: 0
pigweed; [6]
  Plant response rating, Redroot pigweed: 4
pigweed; [7]
  Plant response rating, Redroot pigweed: 8
